Values after ≈ are worked out from the molar mass of the structure shown.
Key:
Assay type in all cases: functional
PC-3 = test: Cytotoxicity against human PC3 cells by sulforhodamine B assay
HT-29 = test: Cytotoxicity against human HT-29 cells by sulforhodamine B assay
786-0 = test: Cytotoxicity against human 786-0 cells by sulforhodamine B assay
P388 = test: Cytotoxicity against mouse P388 cells at 1 mg/ml relative to control

| SMILES | GI50 (PC-3) | GI50 (HT-29) | GI50 (786-0) | T/C (P388) |
| --- | --- | --- | --- | --- |
| COc1ccc(C[C@H]2C(=O)N[C@@H](C)C(=O)N(C)[C@@H]3C(=O)N(C)[C@@H](Cc4ccc(OC)c(c4)Oc4ccc(cc4)[C@@H]3O)C(=O)N[C@H](C)C(=O)N[C@@H](CO)C(=O)N2C)cc1 | 0.26 µg/mL (≈ 0.324 µM) | 1.8 µg/mL (≈ 2.24 µM) | 1.14 µg/mL (≈ 1.42 µM) |  |
| COc1cccc2c1C(=O)c1c(O)c3c(c(O)c1C2=O)C[C@@](O)(C(=O)CO)C[C@@H]3O[C@H]1C[C@H](N)[C@H](O)[C@H](C)O1 [DOXORUBICIN] | 0.35 µg/mL (≈ 0.644 µM) | 0.27 µg/mL (≈ 0.497 µM) | 0.02 µg/mL (≈ 0.0368 µM) |  |
| COc1ccc(C[C@H]2C(=O)N[C@@H](C)C(=O)N(C)[C@@H]3C(=O)N(C)[C@@H](Cc4ccc(OC)c(c4)Oc4ccc(cc4)[C@@H]3O)C(=O)N[C@H](C)C(=O)N[C@@H](C)C(=O)N2C)cc1 | 0.06 µg/mL (≈ 0.0763 µM) | 0.07 µg/mL (≈ 0.089 µM) | 0.07 µg/mL (≈ 0.089 µM) | 134% |

From ChEMBL document CHEMBL4477163, “Rubiaceae-Type Cyclopeptides from Galianthe thalictroides” (2016)
